Literature values, collected in patent publication US8778397B2, “Stabilized tolterodine tartrate formulations” (Mylan Inc., priority 2007, dated 2014).

solubility in water: 12 g/1000 mL
SMILES: Cc1ccc(O)c([C@H](CCN(C(C)C)C(C)C)c2ccccc2)c1 [Tolterodine]
